Experiments:
glucose oxidase (GOx) [1] = biological target: T1, glucose oxidase (GOx) (Aspergillus niger, UniProt P13006); experiment: Tryptophan fluorescence emission binding experiments with GOx; parameters: purchased Sigma Aldrich; conditions: for Emmsion average / Normalized Fluorescence: Supplementary Figure 52 b
[2] = biological target: bovine serum albumin (BSA) (Bos taurus, UniProt P02769); experiment: BSA-directed DCL of building blocks 1-4; parameters: purchased Roche; key to NC of RPA: normalized change of relative peak area (RPA) vs blank DCL
bovine serum albumin (BSA), sequence (P02769 25-607): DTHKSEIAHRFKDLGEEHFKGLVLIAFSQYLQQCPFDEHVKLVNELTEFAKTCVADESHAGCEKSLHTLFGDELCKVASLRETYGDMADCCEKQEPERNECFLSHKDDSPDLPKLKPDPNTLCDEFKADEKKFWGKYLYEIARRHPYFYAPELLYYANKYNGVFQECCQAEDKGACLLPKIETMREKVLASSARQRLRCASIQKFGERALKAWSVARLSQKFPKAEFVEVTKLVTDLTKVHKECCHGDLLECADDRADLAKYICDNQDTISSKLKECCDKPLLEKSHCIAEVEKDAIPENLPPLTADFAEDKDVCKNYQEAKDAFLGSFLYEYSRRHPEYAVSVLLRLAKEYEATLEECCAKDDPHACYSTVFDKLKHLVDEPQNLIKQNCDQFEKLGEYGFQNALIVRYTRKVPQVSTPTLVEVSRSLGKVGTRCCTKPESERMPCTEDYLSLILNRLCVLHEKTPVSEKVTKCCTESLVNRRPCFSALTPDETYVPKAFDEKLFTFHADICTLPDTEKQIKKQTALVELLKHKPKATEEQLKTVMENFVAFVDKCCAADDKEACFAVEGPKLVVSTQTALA

glucose oxidase (GOx) [3] = biological target: T1, glucose oxidase (GOx); experiment: Glucose oxidase-directed DCL of building blocks 1-4; parameters: purchased Sigma Aldrich; unit not given here; conditions: blank vs GOx template DCL; GOx 57 μM, Secox 5% mol, 24 h
Protocol: The equilibration of the DCL was completed after 24 h (Fig. 9) and the oligomers were identified by HPLC-MS (Supplementary Figs. 4–20). The precise composition of the DCL (with and without GOx), was assessed by measuring the relative peak area (RPA). The normalized change of RPA was used to quantify the protein influence in the final DCL showing the amplification of the dimer of compound 4, that is (4)2 (Fig. 9b). Control experiments were set up to verify that the amplification of the dimer was not due to unspecific binding. Firstly the GOx was replaced by the bovine serum albumin (BSA). A stability study of BSA under the DCL conditions was performed using a fluorescence technique confirming the BSA stability in the DCL experiment (Supplementary Fig. 48)[50].
The DCL was stabilized for 24 h at 6 °C. Then, GOx was removed by ultracentrifugation through an Amicon ultra-filter (100 KDa). HPLC analysis was performed.

T1 sequence (P13006 17-605): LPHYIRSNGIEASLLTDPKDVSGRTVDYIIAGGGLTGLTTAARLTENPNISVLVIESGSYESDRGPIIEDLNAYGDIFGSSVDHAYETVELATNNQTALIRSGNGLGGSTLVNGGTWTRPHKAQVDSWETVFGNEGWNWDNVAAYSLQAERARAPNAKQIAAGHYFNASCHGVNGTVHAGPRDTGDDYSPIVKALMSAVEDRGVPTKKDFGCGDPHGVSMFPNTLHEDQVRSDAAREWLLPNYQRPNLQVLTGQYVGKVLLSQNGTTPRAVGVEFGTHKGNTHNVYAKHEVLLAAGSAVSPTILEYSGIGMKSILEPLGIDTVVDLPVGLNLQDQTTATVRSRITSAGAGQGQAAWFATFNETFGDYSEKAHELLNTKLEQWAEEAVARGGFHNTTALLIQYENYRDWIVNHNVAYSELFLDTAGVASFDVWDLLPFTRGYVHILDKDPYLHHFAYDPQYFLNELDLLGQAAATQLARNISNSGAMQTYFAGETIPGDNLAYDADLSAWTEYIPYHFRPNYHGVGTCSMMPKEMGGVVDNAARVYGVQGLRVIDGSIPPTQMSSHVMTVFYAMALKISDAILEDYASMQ

SMILES: c1ccc(SSc2ccccc2)cc1 [(4)2]
- Emmsion average (glucose oxidase (GOx) [1]; [(4)2] 40 μM): 2487781
- Normalized Fluorescence (glucose oxidase (GOx) [1]; [(4)2] 40 μM): 0.09492
- Emmsion average (glucose oxidase (GOx) [1]; [(4)2] 80 μM): 2153387
- Normalized Fluorescence (glucose oxidase (GOx) [1]; [(4)2] 80 μM): 0.2166
- Emmsion average (glucose oxidase (GOx) [1]; [(4)2] 400 μM): 1756334
- Normalized Fluorescence (glucose oxidase (GOx) [1]; [(4)2] 400 μM): 0.361
- Emmsion average (glucose oxidase (GOx) [1]; [(4)2] 2000 μM): 1449655
- Normalized Fluorescence (glucose oxidase (GOx) [1]; [(4)2] 2000 μM): 0.4726
- Emmsion average (glucose oxidase (GOx) [1]; [(4)2] 4000 μM): 1064446
- Normalized Fluorescence (glucose oxidase (GOx) [1]; [(4)2] 4000 μM): 0.6127
- Emmsion average (glucose oxidase (GOx) [1]; [(4)2] 8000 μM): 516610
- Normalized Fluorescence (glucose oxidase (GOx) [1]; [(4)2] 8000 μM): 0.8121
- Emmsion average (glucose oxidase (GOx) [1]; [(4)2] 16000 μM): 236911
- Normalized Fluorescence (glucose oxidase (GOx) [1]; [(4)2] 16000 μM): 0.9138
- Kd (glucose oxidase (GOx) [1]; apparent dissociation constant, GOx 0.8 µM, Tris pH 7.8, 5% DMSO, 10 °C, read-out: Kd'): 110 ± 10 µM
- amplification in the BSA-templated DCL ([2]; GOx replaced by BSA): did not amplify
- NC of RPA ([2]; blank vs BSA-DCL, BSA 57 µM, Secox 5% mol, 24 h): 0,02
- NC of RPA (glucose oxidase (GOx) [3]): 39,73

— publication PMC7794297
